Source: patent US10456374B2, “Pyrrolidone carboxylic acid (PCA) for ophthalmic use” (Laboratori Baldacci S.p.A., priority 2015, dated 2019)

Assays:
[1] = Ex vivo transcorneal permeation through isolated rabbit cornea; format: in vitro ADME; conditions: donor RBB pH 7.6 with 0.02% w/w PCA and 0.04% w/w hyaluronic acid, 32° C.
Text: Evaluation of PCA Ex Vivo Transcorneal Permeation of a Composition According to Example 2 Through Isolated Rabbit Cornea.
For the determination of ex vivo corneal permeability, rabbit corneas obtained after proptosis of the eye, performed immediately after the animal euthanization, were used. The rabbits were New Zealand albino rabbits (n=3) and were euthanized by intravenous injection of Pentothal sodium (Farmaceutici Gellini, Aprilia, Italy). After the eyes were proptosed, the cornea, with 2 mm of sclera, was immediately excised and mounted in a perfusion apparatus. During the preparation, particular attention was paid to prevent the exfoliation of the corneal epithelium and its contact with any solid surfaces. […]
After the permeation experiment start, at appropriate intervals of time (15, 30, 60, 90, 120, 180 and 240 minutes), 0.50 mL of solution were withdrawn from the receiving compartment (endothelial side) and replaced with fresh RBB. At the end of the experiment, the entire donor phase was collected and submitted to quantitative determination of the active ingredient in a similar manner as provided for the samples of the receiving phase.
Quantitative analysis of PCA was performed by HPLC using a C18 reverse phase column C18 (Bondclone 10 μm 300×3.9 mm), and the eluent was a 98:2 mixture buffer solution to acetonitrile. […]

[2] = Residence in the ocular tissue; conditions: stated in the description, no test described
[3] = Pescina et al, 2015; cited from earlier work

Compound | Papp at 240 min, 0.02 % w/w ([1]; New Zealand albino, isolated rabbit cornea, read-out: PCA corneal permeability) | PCA found in the receiving compartment, of the amount present in the donor compartment ([1]; end of the experiment (240 minutes)) | Period of time PCA remains in the ocular tissue [2] | permeability through porcine cornea [3]
O=C1CCC(C(=O)O)N1 (stereo not shown) [PCA, Pyrrolidone carboxylic acid] | 3.95 ×10⁻⁶ cm/s | 0.051 % w/w | greater than 3 hours | –
O=C1OC2(c3ccc(O)cc3Oc3cc(O)ccc32)c2ccccc21 [sodium fluorescein] | – | – | – | 0.05 10^−5 cm/s
